Test results published in PMC11325505, “Nitrogen-Containing Flavonoids—Preparation and Biological Activity” (ACS Omega, 2024).
Converted amounts (≈) assume the structure as drawn. Where two headings read alike, the source gives them in different places.

What was measured:
[1] = system: immortalized human keratinocytes (HaCaT); assay: Cytotoxicity (resazurin assay), keratinocytes; type: cell-based; conditions: 72 h incubation, resazurin, average of three repetitions ± SEM, read-out: HaCaT IC50 (concentration that halved the viability)
Method: (§1) The cytotoxicity of the prepared derivatives was evaluated by their ability to decrease the viability of immortalized human keratinocytes (HaCaT) and human dermal fibroblasts (HDF).
(§2) 100 μL of cell suspension containing 10^5 cells/mL was pipetted into a 96-well plate. After 24 h incubation, the tested compounds were added in the concentration range 12.5–200 μM. After 72 h incubation, the cell viability was tested by standard resazurin assay.[41] Briefly, the cells were washed with PBS and incubated with 100 μL of resazurin solution (0.025 mg/mL) for 2 h. The fluorescence was measured at a wavelength of 560 nm excitation/590 nm emission.

[2] = system: human dermal fibroblasts (HDF); assay: Cytotoxicity (resazurin assay), fibroblasts; type: cell-based; conditions: 72 h incubation, resazurin, average of three repetitions ± SEM, read-out: HDF IC50 (concentration that halved the viability)
Method: as §1, §2

[3] = system: transmembrane efflux pumps; assay: Ethidium bromide accumulation assay; type: cell-based, S. aureus MSSA 2; conditions: compared with comparator CCCP; concentrations 25–100 μM
Source text: The application of antibiotics often leads to oxidative stress in bacteria, which triggers the efflux pump systems that contribute to antimicrobial resistance.[34] Therefore, modulation of the efflux system has been proposed as another plausible target of derivatives. The efflux pump inhibitor carbonyl cyanide 3-chlorophenylhydrazone (CCCP) was used as a comparator in our assay. Its action destroys the proton-motive force at the membrane so that the efflux pump cannot transport substrates out of the cell. One such universal substrate is ethidium bromide, the accumulation of which in the cell can be measured using fluorescence.
The accumulation assay was performed according to previously published methods with minor modifications.[15],[42] Briefly, a bacterial culture of S. aureus MSSA 2 cultured overnight in the presence of colistin (4 mg/L) to induce oxidative stress and activate efflux system[34] was diluted in PBS to OD600 nm = 0.6. The suspension was centrifuged (13,000 × g; 3 min), resuspended in fresh PBS, and distributed into the wells of a black 96-well microtiter plate (ThermoFisher Scientific). Samples were diluted with EtBr solution (4 μg/mL). 50 μL of the mixture was added to 50 μL of the bacterial suspension. The reaction was monitored using SpectraMax iD5Multi-Mode Microplate Reader (ex/em = 530/600 nm) every 60 s for 60 min.

[4] = system: RAW 264.7 cells; assay: Cellular antioxidant activity (CAA); type: cell-based, Murine; conditions: Mus musculus, RAW264.7, macrophages RAW 264.7; average of four repetitions ± standard error of the mean
Method: To evaluate the antioxidant activity of the prepared derivatives and the respective parent compounds, cellular antioxidant activity (CAA) was measured in macrophages. Compared to other in vitro antioxidant assays, this method provides partial information about the uptake and metabolism of the compounds, because, in this assay, they must first enter the cell to exert antioxidant activity.[31] […] Derivatization of quercetin at C-8 with 4-fluoroaniline (5) increased the antioxidant activity of quercetin by 1.7-fold. […] The concentration of these derivatives required to halve the cellular radicals decreased 1.5-fold compared to luteolin.
Cellular antioxidant capacity was evaluated as previously described.[31],[39] Briefly, 100 μL of RAW 264.7 cells with a density corresponding to 1 × 10^6 cells/mL were split into 96-well plates. After 24 h, cells were washed with PBS, and DMEM supplemented with DCFH-DA (0.0125 mg/mL) was added to each well together with the tested samples in the concentration range of 1.5–200 μM. After 1 h incubation in a CO2 incubator, the medium was replaced with AAPH solution (0.16 mg/mL in PBS), and fluorescence was immediately recorded (ex./em. 485/540 nm) for 2 h in 5 min intervals.

[5] = system: nitric oxide (NO) production by RAW 264.7 stimulated by LPS; assay: Anti-inflammatory activity: NO production by LPS-stimulated macrophages; type: cell-based, Murine; conditions: Mus musculus, RAW264.7; LPS-stimulated RAW 264.7; average of four repetitions ± SEM
Method: (§3) The anti-inflammatory activity of flavonoids was evaluated as their ability to decrease the production of signaling molecules that mediate inflammation, such as nitric oxide (NO), tumor necrosis factor (TNF-α), and interleukin 6 (IL-6), in LPS-stimulated macrophages.
(§4) The anti-inflammatory activity of the tested flavonoids was determined as the ability to reduce the production of nitric oxide (NO), tumor necrosis factor (TNF-α), and interleukin 6 (IL-6) by RAW 264.7 stimulated by LPS, as previously described.[39],[40] Briefly, 1 × 10^6 cells/mL was seeded into the 96-well plate (100 μL/well). After 48 h, LPS (100 ng/mL) and the samples (3–100 μM) were added to the MEM medium. After 24 h, the medium was mixed with Griess reagent (0.04 g/mL) at a 1:1 ratio. The absorbance was measured after 15 min at 540 nm. Cell viability was determined using the resazurin assay.

[6] = system: interleukin 6 (IL-6) production by RAW 264.7 stimulated by LPS; assay: Anti-inflammatory activity: IL-6 production by LPS-stimulated macrophages; type: cell-based, Murine; conditions: Mus musculus, RAW264.7; LPS-stimulated RAW 264.7; average of four repetitions ± SEM
Method: as §3, §4
(§5) To determine TNF-α levels, cells were precultivated with the tested compounds for 24 h. After 2 h of incubation with LPS, the medium was diluted 1:10 with ELISA diluent. To determine the level of IL-6, cells were cultivated for 6 h with LPS and the tested compounds. Cytokine production was determined using an uncoated ELISA performed according to the manufacturer’s instructions.

[7] = system: tumor necrosis factor (TNF-α) production by RAW 264.7 stimulated by LPS; assay: Anti-inflammatory activity: TNF-α production by LPS-stimulated macrophages; type: cell-based, Murine; conditions: Mus musculus, RAW264.7; LPS-stimulated RAW 264.7; average of four repetitions ± SEM; read-out: TNFα production IC50
Method: as §3, §4, §5

[8] = system: Staphylococcus aureus MRSA 9; assay: Modulation of antibiotic-resistant phenotype (flavonoid plus breakpoint concentration of antibiotic); type: cell-based; conditions: for minimum inhibitory concentration (MIC) in the presence of erythromycin: erythromycin at breakpoint concentration 1 mg/L; for minimum inhibitory concentration (MIC) in the presence of erythromycin / minimum inhibitory concentration (MIC) in the presence of gentamicin: MIC determined as IC70, three repetitions ± SEM; for minimum inhibitory concentration (MIC) in the presence of gentamicin: gentamicin at breakpoint concentration 1 mg/L
Method: (§6) To evaluate the ability to modulate bacterial resistance, the tested flavonoids themselves cannot exert antimicrobial activity; therefore, the nontoxic concentration was used, as indicated in Table S5. Clinically relevant antibiotics were selected at breakpoint concentrations for susceptibility testing according to the European Committee on Antimicrobial Susceptibility Testing (EUCAST, version 11.0). […] Flavonoids and their derivatives (from 1 μM to the highest nontoxic concentration) were used in combination with the breakpoint concentration of the antibiotics. After coincubation, the minimum inhibitory concentration (MIC) of flavonoids inhibiting the visible growth of bacteria was determined (Table 2).
(§7) Sensitization of multidrug-resistant clinical bacterial strains was performed according to ref[15]. Antibiotic cutoff concentration was chosen according to the European Committee on Antimicrobial Susceptibility Testing (EUCAST, Clinical breakpoints–bacteria, ver. 11.0). The 200 μM concentration of the derivatives was chosen as the highest test concentration. The absorbance detected at 600 nm was then used to estimate the number of viable cells after 24 h of incubation at 37 °C and 120 rpm.
(§8) Experiments were performed with the respective number of replicates indicated in each figure/table. MIC was determined as IC70. Both IC70 and IC50 values were calculated using the following nonlinear regression in the software GraphPad Prism: […]

[9] = system: MRSA 3596; assay: Mode of antimicrobial action with erythromycin or gentamicin, ermA- and aadD-positive strain; type: cell-based, S. aureus; conditions: MRSA 3596 (aadD)
Source text: Erythromycin is a macrolide antibiotic that inhibits proteosynthesis by binding to the 50S subunit of the ribosome. In Staphylococcus species, resistance to erythromycin is associated with the presence of methyltransferases (encoded by erm genes) that alter the ribosomal target site. Another typical mechanism of resistance to erythromycin is the presence of an ATP-dependent efflux pump encoded by the msr(A) gene or a major facilitator superfamily (MFS) pump encoded by the lmrS gene. Both efflux pumps reduce the concentration of erythromycin in the cell below the therapeutic dose by transporting it across the membrane to the extracellular space. Another erythromycin resistance gene is the mph(C) gene, the product of which is a phosphotransferase that alters the structure of macrolide antibiotics. To elucidate the mechanism of erythromycin resistance modulation in S. aureus, further tests were performed with the strains MRSA 331 and MRSA 3596, which inactivate erythromycin via a single mechanism (ermC and ermA, respectively). […] Therefore, if the activity was not strain-specific, it would be necessary to consider the effect of the derivatives on this pump (Table 3).
(§9) Among the mechanisms of resistance to gentamicin previously described in S. aureus, the presence of enzymes that alter the structure of aminoglycosides is crucial. These enzymes can transfer nucleotides, phosphates, or acetyls to various −OH or −NH2 groups of gentamicin, preventing its subsequent interaction with the cellular target, i.e., the 30S ribosomal subunit. The bifunctional aminoglycoside-modifying enzyme with acetylation and phosphotransferase activities encoded by the gene aac(6’)/aph(2’), 4′,4″ adenyltransferase encoded by the aadD gene, and aminoglycoside O-phosphotransferase encoded by the gene aph(3′) are the most important.[37] […] For this reason, further testing continued using strains MRSA 3596 and MRSA 1584, which inactivate gentamicin only by a single mechanism (aadD and aac(6’)-aph(2’’), respectively).
as §7, §8

[10] = system: MRSA 1584; assay: Mode of antimicrobial action with gentamicin, aac(6')/aph(2')-positive strain; type: cell-based, Staphylococcus aureus
Source text: as §9, §7, §8

[11] = system: S. aureus CCM 4223; assay: Antibacterial activity, antibiotic-sensitive strain; type: cell-based; conditions: Staphylococcus aureus, CCM4223, three repetitions ± SEM
[12] = system: S. aureus MRSA 9; assay: Antibacterial activity, multidrug-resistant strain; type: cell-based; conditions: for IC50: Staphylococcus aureus, MRSA, multidrug-resistant strain, three repetitions ± SEM; for effect of the antibiotic alone on the multidrug-resistant clinical strain: breakpoint concentrations (1 mg/L)
Method: as §6, §7, §8

IC50 [4] [µM] | IC50 [5] [µM] | IC50 [6] [µM] | minimum inhibitory concentration (MIC) in the presence of erythromycin [8] [µM] | minimum inhibitory concentration (MIC) in the presence of gentamicin [8] | IC50 [11] [µM] | IC50 [12] [µM] | SMILES | IC50 [7] [µM] | IC50 ([1]; Homo sapiens, HaCaT, 72 h) [µM] | IC50 ([2]; Homo sapiens, Fibroblast, 72 h) [µM] | other results
 |  |  |  |  |  |  | COc1cccc2c1C(=O)c1c(O)c3c(c(O)c1C2=O)C[C@@](O)(C(=O)CO)C[C@@H]3O[C@H]1C[C@H](N)[C@H](O)[C@H](C)O1 [Doxorubicin, reference compound] |  |  |  | IC50 ([1]; listed as doxorubicin): < 1 µM; IC50 [1]: 0.42 ± 0.03 µM; IC50 ([2]; listed as doxorubicin): < 1 µM; IC50 [2]: 0.19 ± 0.01 µM
 |  |  |  |  |  |  | N#CC(C#N)=NNc1cccc(Cl)c1 [CCCP, carbonyl cyanide 3-chlorophenylhydrazone, reference compound] |  |  |  | efflux inhibition (ethidium bromide accumulation), in words [3]: increases the accumulation of ethidium bromide
5.5 ± 0.4 | 34.4 ± 0.2 | 12.9 ± 0.2 | >200 | 43.8 ± 1.6 µM | 32.7 ± 0.7 | 70 ± 2 | O=c1c(O)c(-c2ccc(O)c(O)c2)oc2c(Nc3ccccc3)c(O)cc(O)c12 [compound 7, 2-(3,4-Dihydroxyphenyl)-8-(anilino)-3,5,7-trihydroxy-4H–1-benzopyran-4-one] | > 100 | 102 ± 1.5 | 115 ± 1.2 | MIC, Gentamicin [1 mg/L] yes ([9]; with gentamicin 1 mg/L): > 200 µM; MIC ([9]; Staphylococcus aureus, 24 h, read-out: MIC, Gentamicin [1 mg/L] no, without gentamicin, Table S6): > 200 µM; effect (mode of action with gentamicin) ([10]; MRSA 1584): indifferent (> 1 to < 2 indicates indifference); MIC, Gentamicin [1 mg/L] yes ([10]; MRSA 1584 (aac(6')/aph(2')), with gentamicin 1 mg/L): 31.9 ± 2.5 µM (≈ 12.5 µg/mL); FIC (Fractional Inhibitory Concentration Index) ([10]; MRSA 1584, with gentamicin): 1.07 ± 0.13; MIC ([10]; Staphylococcus aureus, 24 h, read-out: MIC, Gentamicin [1 mg/L] no, MRSA 1584, without gentamicin): 29.9 ± 1.2 µM (≈ 11.8 µg/mL)
5.7 ± 1 | 26.6 ± 0.4 | > 50 | >200 | >200 µM | > 200 | > 200 | COc1cc(Nc2c(O)cc(O)c3c(=O)c(O)c(-c4ccc(O)c(O)c4)oc23)cc(OC)c1 [compound 9, 2-(3,4-Dihydroxyphenyl)-8-(3,5-dimethoxyanilino)-3,5,7-trihydroxy-4H–1-benzopyran-4-one] | > 50 | 56.9 ± 1.9 | 76 ± 3 | 
 |  |  |  |  |  |  | CNC(C)C1CCC(N)C(OC2C(N)CC(N)C(OC3OCC(C)(O)C(NC)C3O)C2O)O1 (centres unmarked) [gentamicin, reference compound] |  |  |  | effect of the antibiotic alone on the multidrug-resistant clinical strain [12]: did not affect
7.5 ± 0.7 | 52.3 ± 2.3 | 32.3 ± 2.3 | >200 | >200 ^note 2 μM | 44 ± 0.1 | 138 ± 1.2 | COc1ccc(Nc2c(O)cc(O)c3c(=O)c(O)c(-c4ccc(O)c(O)c4)oc23)cc1 [compound 6, 2-(3,4-Dihydroxyphenyl)-8-(4-methoxyanilino)-3,5,7-trihydroxy-4H–1-benzopyran-4-one] | > 50 | 45.2 ± 3.5 | 79.9 ± 1.5 | inhibition at 200 µM ([8]; Staphylococcus aureus, MRSA, with gentamicin 1 mg/L, maximum concentration used (200 μM), read-out: maximum concentration used inhibited bacterial growth to): 50.7%
 |  |  |  |  |  |  | CC[C@H]1OC(=O)[C@H](C)[C@@H](O[C@H]2C[C@@](C)(OC)[C@@H](O)[C@H](C)O2)[C@H](C)[C@@H](O[C@@H]2O[C@H](C)C[C@H](N(C)C)[C@H]2O)[C@](C)(O)C[C@@H](C)C(=O)[C@H](C)[C@@H](O)[C@]1(C)O [Erythromycin, reference compound] |  |  |  | effect of the antibiotic alone on the multidrug-resistant clinical strain [12]: did not affect
